This is an account of results in patent US9758527B2, “Cyclohexene derivative, preparation method therefor, and pharmaceutical composition for preventing or treating metabolic diseases, containing same as active ingredient” (HYUNDAI PHARM CO., LTD., priority 2014, dated 2017).

The target of this assay is T1, G protein-coupled receptor 119 (GPR-119) (Mesocricetus auratus, UniProt A0A1U8CD06).
T1 construct: hamster-derived β-cells containing G protein-coupled receptor 119 (GPR-119), HIT-T15 cells; host or cells: HIT-T15 (hamster pancreatic β-cells)
T1 sequence (A0A1U8CD06 1-334): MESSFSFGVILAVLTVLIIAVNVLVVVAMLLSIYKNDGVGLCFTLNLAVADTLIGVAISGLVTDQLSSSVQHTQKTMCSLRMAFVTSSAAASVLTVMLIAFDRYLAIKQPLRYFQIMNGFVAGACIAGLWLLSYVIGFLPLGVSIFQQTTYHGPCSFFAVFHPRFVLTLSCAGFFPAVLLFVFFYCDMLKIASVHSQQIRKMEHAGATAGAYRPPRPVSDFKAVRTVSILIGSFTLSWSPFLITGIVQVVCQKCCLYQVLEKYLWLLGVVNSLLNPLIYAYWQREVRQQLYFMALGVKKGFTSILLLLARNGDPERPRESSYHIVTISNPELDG
As to the kind of experiment: Evaluation of cAMP activity in HIT-T15 cells (HTRF cAMP dynamic kit). The format is cell-based, hamster. Particulars: cAMP activation. Here is the method:
To check whether the cyclohexene derivatives according to the present invention activate cyclic adenosine monophosphate (cAMP), experiments were carried out, as follows.
The HIT-T15 cells were plated on a 96-well plate at 60,000 cells per well. On the next day of plating, the cells were treated with a varying concentration of each of the example compounds according to the present invention, and incubated at 37° C. for an hour. In this case, each of the treated compounds was used at six concentrations, ranging from […], to treat the cells.
The cyclic adenosine monophosphate (cAMP) activity was measured according to the manufacturer's instruction using a cAMP dynamic kit commercially available from Cis Bio Inc. (Bedford, Mass.). The cells were lysed, and a level of cAMP was determined by a competitive immunoassay using D2-labeled cAMP and a cryptate-labeled anti-cAMP antibody. Fluorescence was read in Flex Station (Molecular Devices). […] Unlabeled cAMP in the cell lysate competed with the D2-labeled cAMP against the cryptate-labeled antibody. Since a decrease in the measured intensity of the FRET signals represents a level of cAMP in the cells, the cAMP activities of the compounds are calculated as a change in FRET signals by adjusting an amount of dimethyl sulfoxide (DMSO).

The mark [1] stands for this setting: 1 h at 37° C., six concentrations, read-out: EC50.

Like-named read-outs stand apart in the source and are kept apart here.

For the compound `CC(C)c1noc(N2CCC(COc3ccc(C4=CCC(C(=O)NC[C@@H](C)O)CC4)cc3)CC2)n1` (stereo partly drawn) [Example 28, N-((R)-2-hydroxypropyl)-4-(4-((1-(3-isopropyl-1,2,4-oxadiazol-5-yl)piperidin-4-yl)methoxy)phenyl)cyclohex-3-enecarboxamide], the EC50 under setting [1] is 110 nM.

As to `CC(C)c1noc(N2CCC(COc3ccc(C4=CCC(C(=O)NC[C@H](C)O)CC4)cc3)CC2)n1` (stereo partly drawn) [Example 29, N-((S)-2-hydroxypropyl)-4-(4-((1-(3-isopropyl-1,2,4-oxadiazol-5-yl)piperidin-4-yl)methoxy)phenyl)cyclohex-3-enecarboxamide], the EC50 under setting [1] was found to be 95 nM. Consider `CCc1cnc(N2CCC(COc3ccc(C4=CCC(C(=O)NC[C@@H](C)O)CC4)cc3)CC2)nc1` (stereo partly drawn) [Example 30, 4-(4-((1-(5-ethylpyrimidin-2-yl)piperidin-4-yl)methoxy)phenyl)-N-((R)-2-hydroxypropyl)cyclohex-3-enecarboxamide], for which, under setting [1], the EC50 came out at 105 nM. In the case of `CC(C)c1noc(N2CCC(COc3ccc(C4=CCC(C(=O)NCCO)CC4)cc3)CC2)n1` (stereo not shown) [Example 31, N-(2-hydroxyethyl)-4-(4-((1-(3-isopropyl-1,2,4-oxadiazol-5-yl)piperidin-4-yl)methoxy)phenyl)cyclohex-3-enecarboxamide], the EC50 under setting [1] was 260 nM. Take `CC(C)(C)OC(=O)N1CCC(COc2ccc(C3=CCC(C(=O)NC[C@@H](O)CO)CC3)cn2)CC1` (stereo partly drawn) [Example 32, tert-butyl 4-((5-(4-((R)-2,3-dihydroxypropylcarbamoyl)cyclohex-1-enyl)pyridin-2-yloxy)methyl)piperidine-1-carboxylate]: the EC50 under setting [1] amounted to 650 nM. With `CC(C)(C)OC(=O)N1CCC(COc2ccc(C3=CCC(C(=O)NC[C@H](O)CO)CC3)cn2)CC1` (stereo partly drawn) [Example 33, tert-butyl 4-((5-(4-((S)-2,3-dihydroxypropylcarbamoyl)cyclohex-1-enyl)pyridin-2-yloxy)methyl)piperidine-1-carboxylate], the EC50 under setting [1] amounted to 600 nM. For `CC(C)c1noc(N2CCC(COc3ccc(C4=CCC(C(=O)N(C)CCO)CC4)cc3)CC2)n1` (stereo not shown) [Example 34, N-(2-hydroxyethyl)-4-(4-((1-(3-isopropyl-1,2,4-oxadiazol-5-yl)piperidin-4-yl)methoxy)phenyl)-N-methylcyclohex-3-enecarboxamide], the EC50 reads like this: under setting [1], 21 nM; (read-out: EC50 value) ≤ 50 nM. As for `CCN(CCO)C(=O)C1CC=C(c2ccc(OCC3CCN(c4nc(C(C)C)no4)CC3)cc2)CC1` (stereo not shown) [Example 35, N-ethyl-N-(2-hydroxyethyl)-4-(4-((1-(3-isopropyl-1,2,4-oxadiazol-5-yl)piperidin-4-yl)methoxy)phenyl)cyclohex-3-enecarboxamide], the EC50 is 22 nM under setting [1] and ≤ 50 nM (read-out: EC50 value). `CC(C)c1noc(N2CCC(COc3ccc(C4=CCC(C(=O)N[C@H](C)CO)CC4)nc3)CC2)n1` (stereo partly drawn) [Example 36, N-((R)-1-hydroxypropan-2-yl)-4-(5-((1-(3-isopropyl-1,2,4-oxadiazol-5-yl)piperidin-4-yl)methoxy)pyridin-2-yl)cyclohex-3-enecarboxamide]: the EC50 under setting [1] came out at 170 nM.

For the compound `CC(C)c1noc(N2CCC(COc3ccc(C4=CCC(C(=O)N[C@@H](C)CO)CC4)nc3)CC2)n1` (stereo partly drawn) [Example 37, N-((S)-1-hydroxypropan-2-yl)-4-(5-((1-(3-isopropyl-1,2,4-oxadiazol-5-yl)piperidin-4-yl)methoxy)pyridin-2-yl)cyclohex-3-enecarboxamide], the EC50 under setting [1] stood at 300 nM. Regarding `CC(C)c1noc(N2CCC(COc3ccc(C4=CCC(C(=O)NC[C@@H](C)O)CC4)nc3)CC2)n1` (stereo partly drawn) [Example 38, N-((R)-2-hydroxypropyl)-4-(5-((1-(3-isopropyl-1,2,4-oxadiazol-5-yl)piperidin-4-yl)methoxy)pyridin-2-yl)cyclohex-3-enecarboxamide], under setting [1], the EC50 stood at 450 nM. In the case of `CC(C)c1noc(N2CCC(COc3ccc(C4=CCC(C(=O)NC[C@H](C)O)CC4)nc3)CC2)n1` (stereo partly drawn) [Example 39, N-((S)-2-hydroxypropyl)-4-(5-((1-(3-isopropyl-1,2,4-oxadiazol-5-yl)piperidin-4-yl)methoxy)pyridin-2-yl)cyclohex-3-enecarboxamide], the concentration giving a half-maximal response (EC50) under setting [1] is 350 nM. Consider `CC(C)c1noc(N2CCC(COc3ccc(C4=CCC(C(=O)NC[C@@H](O)CO)CC4)nc3)CC2)n1` (stereo partly drawn) [Example 40, N-((R)-2,3-dihydroxypropyl)-4-(5-((1-(3-isopropyl-1,2,4-oxadiazol-5-yl)piperidin-4-yl)methoxy)pyridin-2-yl)cyclohex-3-enecarboxamide], for which the EC50 under setting [1] was determined as 500 nM. Take `CC(C)c1noc(N2CCC(COc3ccc(C4=CCC(C(=O)NC[C@H](O)CO)CC4)nc3)CC2)n1` (stereo partly drawn) [Example 41, N-((S)-2,3-dihydroxypropyl)-4-(5-((1-(3-isopropyl-1,2,4-oxadiazol-5-yl)piperidin-4-yl)methoxy)pyridin-2-yl)cyclohex-3-enecarboxamide]: the EC50 under setting [1] was 650 nM. Regarding `CC(C)(C)OC(=O)N1CCC(COc2ccc(C3=CCC(C(=O)N4CC[C@H](O)C4)CC3)cn2)CC1` (stereo partly drawn) [Example 42, tert-butyl 4-((5-(4-((S)-3-hydroxypyrrolidine-1-carbonyl)cyclohex-1-enyl)pyridin-2-yloxy)methyl)piperidine-1-carboxylate], the EC50 under setting [1] amounted to 82 nM. Consider `CC(C)(C)OC(=O)N1CCC(COc2ccc(C3=CCC(C(=O)N4CC[C@@H](O)C4)CC3)cn2)CC1` (stereo partly drawn) [Example 43, tert-butyl 4-((5-(4-((R)-3-hydroxypyrrolidine-1-carbonyl)cyclohex-1-enyl)pyridin-2-yloxy)methyl)piperidine-1-carboxylate], for which the EC50 under setting [1] is 85 nM. For the compound `CC(C)(C)OC(=O)N1CCC(COc2ccc(C3=CCC(C(=O)N4CC[C@H](O)C4)CC3)cc2F)CC1` (stereo partly drawn) [Example 44, tert-butyl 4-((2-fluoro-4-(4-((S)-3-hydroxypyrrolidine-1-carbonyl)cyclohex-1-enyl)phenoxy)methyl)piperidine-1-carboxylate], the EC50 under setting [1] was 13 nM and the EC50 (read-out: EC50 value) was ≤ 50 nM. On to `CC(C)(C)OC(=O)N1CCC(COc2ccc(C3=CCC(C(=O)N4CC[C@@H](O)C4)CC3)cc2F)CC1` (stereo partly drawn) [Example 45, tert-butyl 4-((2-fluoro-4-(4-((R)-3-hydroxypyrrolidine-1-carbonyl)cyclohex-1-enyl)phenoxy)methyl)piperidine-1-carboxylate], for which the concentration for a half-maximal effect (EC50) under setting [1] worked out at 25 nM and the EC50 (read-out: EC50 value) is ≤ 50 nM.

Turning to `CC(C)c1noc(N2CCC(COc3ccc(C4=CCC(C(=O)NC(CO)CO)CC4)nc3)CC2)n1` (stereo not shown) [Example 46, N-(1,3-dihydroxypropan-2-yl)-4-(5-((1-(3-isopropyl-1,2,4-oxadiazol-5-yl)piperidin-4-yl)methoxy)pyridin-2-yl)cyclohex-3-enecarboxamide], the EC50 under setting [1] was determined as 500 nM. Same read-out and setting: the value for `CC(C)c1noc(N2CCC(COc3ccc(C4=CCC(C(=O)NCC(C)(C)CO)CC4)nc3)CC2)n1` (stereo not shown) [Example 47, N-(3-hydroxy-2,2-dimethylpropyl)-4-(5-((1-(3-isopropyl-1,2,4-oxadiazol-5-yl)piperidin-4-yl)methoxy)pyridin-2-yl)cyclohex-3-enecarboxamide] was 150 nM. As for `CC(C)c1noc(N2CCC(COc3ccc(C4=CCC(C(=O)N5CC[C@H](O)C5)CC4)cc3)CC2)n1` (stereo partly drawn) [Example 49, ((S)-3-hydroxypyrrolidin-1-yl)(4-(4-((1-(3-isopropyl-1,2,4-oxadiazol-5-yl)piperidin-4-yl)methoxy)phenyl)cyclohex-3-enyl)methanone], the EC50 under setting [1] worked out at 26 nM and the EC50 (read-out: EC50 value) is ≤ 50 nM. With `CCc1cnc(N2CCC(COc3ccc(C4=CCC(C(=O)NCC(F)F)CC4)cc3)CC2)nc1` (stereo not shown) [Example 50, N-(2,2-difluoroethyl)-4-(4-((1-(5-ethylpyrimidin-2-yl)piperidin-4-yl)methoxy)phenyl)cyclohex-3-enecarboxamide], the EC50 under setting [1] was 95 nM. With `CC(C)c1noc(N2CCC(COc3ccc(C4=CCC(C(=O)NCC(F)F)CC4)cc3)CC2)n1` (stereo not shown) [Example 51, N-(2,2-difluoroethyl)-4-(4-((1-(3-isopropyl-1,2,4-oxadiazol-5-yl)piperidin-4-yl)methoxy)phenyl)cyclohex-3-enecarboxamide], the EC50 under setting [1] was found to be 66 nM. In the case of `CC(C)c1noc(N2CCC(COc3ccc(C4=CCC(C(=O)N5CCCC5)CC4)cc3)CC2)n1` (stereo not shown) [Example 52, (4-(4-((1-(3-isopropyl-1,2,4-oxadiazol-5-yl)piperidin-4-yl)methoxy)phenyl)cyclohex-3-enyl)(pyrrolidin-1-yl)methanone], the EC50 under setting [1] turned out to be 55 nM. Consider `CC(C)c1noc(N2CCC(COc3ccc(C4=CCC(C(=O)N5CC[C@H](F)C5)CC4)cc3)CC2)n1` (stereo partly drawn) [Example 53, ((S)-3-fluoropyrrolidin-1-yl)(4-(4-((1-(3-isopropyl-1,2,4-oxadiazol-5-yl)piperidin-4-yl)methoxy)phenyl)cyclohex-3-enyl)methanone], for which the EC50 by setting is: under setting [1], 21 nM; (read-out: EC50 value) ≤ 50 nM.
